Experimental data reported in PubChem BioAssay (NCI).
Values joined by “and” are separate entries in the source; they are usually repeats but may differ in a detail not shown here. Equal entries are not always repeated.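 Following 48 hours of exposure in 96-well plates, responses at five concentrations were used to interpolate endpoints linearly. GI50 is the concentration that inhibits growth by half. TGI: total growth inhibition.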

Experiments:
Assay in all cases: inhibition of tumour cell growth, NCI panel, 48 h
[1] = system: SK-MEL-5 melanoma
[2] = system: LOX IMVI melanoma
[3] = system: HL-60(TB) leukemia
[4] = system: UACC-62 melanoma
[5] = system: RPMI-8226 leukemia
[6] = system: SNB-78 CNS
[7] = system: U251 CNS
[8] = system: DMS 273 small cell lung
[9] = system: LXFL 529 NSCLC
[10] = system: DLD-1 colon
[11] = system: BT-549 breast
[12] = system: MDA-MB-231 breast

SMILES | TGI [1] | TGI [2] | TGI [3] | TGI [4] | TGI [5] | TGI [6] [µM] | TGI [7] | TGI [8] | TGI [9] [µM] | TGI [10] [µM] | TGI [11] [µM] | TGI [12] [µM] | GI50 [1] | GI50 [11] [µM] | GI50 [4] | GI50 [12] | GI50 [7] | GI50 [10]
O=C1c2ccccc2C(=O)N1Cc1ccccc1-c1c2nc(c(-c3ccccc3CN3C(=O)c4ccccc4C3=O)c3ccc([nH]3)c(-c3ccccc3CN3C(=O)c4ccccc4C3=O)c3nc(c(-c4ccccc4CN4C(=O)c5ccccc5C4=O)c4ccc1[nH]4)C=C3)C=C2 | > 100 µM | > 100 µM | > 100 µM | > 100 µM | > 100 µM | > 100 | > 100 µM | > 100 µM | > 100 | > 100 | – | – | – | – | – | – | – | –
CC(=O)C1=C(C)NC2C=CC=CN12 (stereo not drawn) | > 100 µM | > 100 µM | > 100 µM | > 100 µM | > 100 µM | > 100 | > 100 µM | > 100 µM | – | > 100 | – | – | – | – | – | – | – | –
Cc1[nH]c(=O)[nH]c(=O)c1/C=C/C(=O)O | > 1000 µM | > 1000 µM | > 1000 µM | > 1000 µM | > 1000 µM | > 1000 | > 1000 µM | > 1000 µM | – | > 1000 | – | – | – | – | – | – | – | –
CCCCCCCCCCCCCCCCCC(=O)O[C@H](COC(=O)CCCCCCCCCCC)COC(=O)CCCCCCCCCCCCCCC | > 100 µM | > 100 µM | > 100 µM | > 100 µM | > 100 µM | – | > 100 µM | > 100 µM | > 100 | > 100 | – | – | – | – | – | – | – | –
O=C(CSc1nnc(Cc2ccccc2)o1)Nc1ccc([N+](=O)[O-])cc1 | > 100 µM | > 100 µM | > 100 µM | > 100 µM | > 100 µM | > 100 | > 100 µM | > 100 µM | > 100 | > 100 | – | – | – | – | – | – | – | –
CC(=O)OC1CC2C(C)(C)OC(=O)CC(OC(C)=O)[C@]2(C)C2CCC3(C)C(=CCC3[C@H]3COC(=O)C3)[C@]12C (stereo partly drawn) | > 100 µM | > 100 µM | > 100 µM | > 100 µM | > 100 µM | > 100 | > 100 µM | > 100 µM | > 100 | > 100 | – | – | – | – | – | – | – | –
CCn1nc2c3c(ncn3C(C)(C)O2)c1=O | > 100 µM | > 100 µM | > 100 µM | > 100 µM | > 100 µM | – | > 100 µM | – | – | – | > 100 | > 100 | – | – | – | – | – | –
Cc1ccc([C@H]2CC(=O)C[C@H](c3ccc(C)cc3)C23C(=O)c2ccccc2C3=O)cc1 | > 100 µM | > 100 µM | 33.2 µM | > 100 µM | > 100 µM | – | 35.6 µM | – | – | – | > 100 | > 100 | – | – | – | – | – | –
COc1cc(Nc2c3ccccc3nc3ccccc23)ccc1NS(C)(=O)=O | 28.6 µM | > 100 µM | 30.1 µM | 26.7 µM | > 100 µM | 47.1 | 25.2 µM | – | 35 | 22 | – | – | – | – | – | – | – | –
O=c1c2c([N+](=O)[O-])cccc2nc2[nH]c3ccccc3n12 | > 75 µM | > 75 µM | > 75 µM | > 75 µM | > 75 µM | – | > 75 µM | – | – | – | 51.1 | 31.7 | – | – | – | – | – | –
O=C(NCCCCCCNCc1cccc2ccccc12)Nc1cccc2ccccc12 | > 100 µM | > 100 µM | > 100 µM | > 100 µM | > 100 µM | – | > 100 µM | – | – | – | > 100 | > 100 | – | – | – | – | – | –
CC(=O)O[C@H]1CC[C@@]2(C)C(=CC[C@H]3[C@@H]4C[C@H](N5CCCC5)[C@H](OC(C)=O)[C@@]4(C)CC[C@@H]32)C1 | 54.8 µM | > 100 µM | > 80.9 µM | > 100 µM | > 100 µM | – | > 100 µM | – | – | – | > 100 | > 100 | – | – | – | – | – | –
CCC1(C(=O)OC(C)(C)C)OC12C(C)CCCC2C (stereo not drawn) | > 100 µM | 96.1 µM | 37 µM | > 100 µM | 49.9 µM | – | > 100 µM | – | – | – | > 100 | > 100 | – | – | – | – | – | –
O=C(NC(Cc1ccc(I)cc1)C(=O)O)c1ccc(Br)cc1 (stereo not drawn) | > 100 µM | > 100 µM | > 100 µM | > 100 µM | > 100 µM | > 100 | > 100 µM | > 100 µM | – | > 100 | – | – | – | – | – | – | – | –
Cc1ccc(S(=O)(=O)OCC(=O)O)cc1 | > 100 µM | > 100 µM | > 100 µM | > 100 µM | > 100 µM | – | > 100 µM | – | – | – | > 100 | > 100 | – | – | – | – | – | –
O=C1Nc2c(ccc(Cl)c2I)C1=O | 29.5 µM | 37 µM | 48.1 µM | 33.8 µM | 35.8 µM | – | 56.9 µM | 37 µM | 27.5 | 35.3 | – | – | – | – | – | – | – | –
COc1cc(CNc2ccc(SC)cc2)cc(OC)c1OC | 59.6 µM and 16 µM | > 59.7 µM and 45.9 µM | 42.6 µM and 40.2 µM | > 80.7 µM and 51.1 µM | > 78.3 µM and 66.2 µM | > 100 | 61.6 µM and 32.9 µM | 28.1 µM and > 36.7 µM | > 100 | > 100 | > 100 | > 100 | 11.6 µM and 4.51 µM | 9.13 | 10.7 µM and 4.64 µM | 15 µM and 6.23 µM | 10.8 µM and 4.13 µM | 12 µM and 5.85 µM
